Laboratory results as given in article PMC9120017, “Inhibition mechanism of the chloride channel TMEM16A by the pore blocker 1PBC” (Nature Communications, 2022).
Like-named read-outs stand apart in the source and are kept apart here.

Target: T1, mouse TMEM16A mutant G558P (Mus musculus, UniProt Q8BHY3, G558P)
T1 construct: expressed in transfected cells; host or cells: HEK293T
T1 sequence (Q8BHY3 1-960 G558P): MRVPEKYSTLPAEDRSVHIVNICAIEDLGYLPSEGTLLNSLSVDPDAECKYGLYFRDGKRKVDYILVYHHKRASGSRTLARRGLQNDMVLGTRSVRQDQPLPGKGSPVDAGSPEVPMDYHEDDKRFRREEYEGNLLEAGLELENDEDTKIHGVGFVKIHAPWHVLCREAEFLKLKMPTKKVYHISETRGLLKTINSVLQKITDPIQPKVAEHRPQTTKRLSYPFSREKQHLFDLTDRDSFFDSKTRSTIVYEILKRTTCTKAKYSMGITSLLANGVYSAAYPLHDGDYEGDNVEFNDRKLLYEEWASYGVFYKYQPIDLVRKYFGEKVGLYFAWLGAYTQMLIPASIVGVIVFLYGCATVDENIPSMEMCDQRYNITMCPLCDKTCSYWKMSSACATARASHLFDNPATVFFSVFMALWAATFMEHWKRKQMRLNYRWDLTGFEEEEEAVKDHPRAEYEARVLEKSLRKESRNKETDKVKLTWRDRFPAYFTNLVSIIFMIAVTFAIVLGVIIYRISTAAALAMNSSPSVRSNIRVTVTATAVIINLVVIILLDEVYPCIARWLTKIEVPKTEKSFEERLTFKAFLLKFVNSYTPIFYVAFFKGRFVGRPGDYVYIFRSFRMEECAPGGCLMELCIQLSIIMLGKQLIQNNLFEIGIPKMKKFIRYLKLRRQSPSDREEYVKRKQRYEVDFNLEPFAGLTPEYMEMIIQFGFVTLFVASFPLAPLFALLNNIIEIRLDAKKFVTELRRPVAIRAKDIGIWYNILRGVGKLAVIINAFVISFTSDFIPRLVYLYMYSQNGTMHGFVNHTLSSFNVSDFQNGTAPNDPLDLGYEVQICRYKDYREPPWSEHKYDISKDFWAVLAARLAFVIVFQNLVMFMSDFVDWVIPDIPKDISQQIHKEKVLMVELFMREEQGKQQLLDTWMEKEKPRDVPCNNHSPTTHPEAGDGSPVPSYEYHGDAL
Experiment: Inside-out patch recording of 1PBC block, mutant G558P
Assay type: cell-based
Conditions: for remaining activity at 1 µM: 1PBC conc 1; for remaining activity at 1 µM / remaining activity at 3 µM / remaining activity at 10 µM / remaining activity at 30 µM / remaining activity at 100 µM: read-out: relative current in 1PBC (avr); for remaining activity at 3 µM: 1PBC conc 3; for remaining activity at 10 µM: 1PBC conc 10; for remaining activity at 30 µM: 1PBC conc 30; for remaining activity at 100 µM: 1PBC conc 100
Description: HEK293T cells (ATCC CRL-1573) were maintained in Dulbecco’s modified Eagle’s medium (DMEM; Sigma-Aldrich) supplemented with 10 U ml^−1 penicillin, 0.1 mg ml^−1 streptomycin (Sigma-Aldrich), 2 mM L-glutamine (Sigma-Aldrich), and 10% FBS (Sigma-Aldrich) in a humidified atmosphere containing 5% CO2 at 37 °C. HEK293S GnTI^− cells (ATCC CRL-3022) were maintained in HyClone HyCell TransFx-H medium (GE Healthcare) supplemented with 10 U ml^−1 penicillin, 0.1 mg ml^−1 streptomycin, 4 mM L-glutamine, 0.15% poloxamer 188 (Sigma-Aldrich), and 1% FBS in an atmosphere containing 5% CO2 at 185 rpm at 37 °C. The ac splice variant of mouse TMEM16A (UniProt ID: Q8BHY3), mouse TMEM16B (UniProt ID: Q8CFW1), or mouse TMEM16F (UniProt ID: Q6P9J9) bearing a 3C cleavage site, a Venus YFP, a Myc tag, and a Streptavidin-binding peptide (SBP) downstream of the open reading frame in a modified pcDNA3.1 vector (Invitrogen) were used as described previously[21],[31]. Mutations were introduced using a modified QuikChange method[58] and were verified by sequencing.
HEK293T cells were transfected with 3–4 μg DNA per 6 cm Petri dish using the calcium phosphate co-precipitation method and were used within 24–96 h after transfection. Recordings were performed on inside-out patches excised from HEK293T cells expressing the construct of interest. Patch pipettes were pulled from borosilicate glass capillaries (O.D. 1.5 mm, I.D. 0.86 mm, Sutter Instrument) and were fire-polished with a microforge (Narishige) before use. Pipette resistance was typically 3–8 MΩ when filled with the recording solutions detailed below. Seal resistance was typically 4 GΩ or higher. Voltage-clamp recordings were made using Axopatch 200B, Digidata 1550, and Clampex 10.7 (Molecular Devices). Analog signals were filtered with the in-built 4-pole Bessel filter at 10 kHz and were digitized at 20 kHz. Solution exchange was achieved using a gravity-fed system through a theta glass pipette mounted on an ultra-fast piezo-driven stepper (Siskiyou). […] All recordings were performed at 20 °C.
A symmetrical ionic condition was used throughout. Stock solution with Ca^2+-EGTA contained 150 mM NaCl, 5.99 mM Ca(OH)2, 5 mM EGTA, and 10 mM HEPES at pH 7.40. Stock solution with EGTA contained 150 mM NaCl, 5 mM EGTA, and 10 mM HEPES at pH 7.40. Free Ca^2+ concentrations were adjusted by mixing the stock solutions at the required ratios calculated using the WEBMAXC program (http://web.stanford.edu/~cpatton/webmaxcS.htm). Patch pipettes were filled with the stock solution with Ca^2+-EGTA, which has a free Ca^2+ concentration of 1 mM. 1PBC (ChemBridge) stock was reconstituted in anhydrous DMSO (Sigma-Aldrich) at 100 mM and stored at −20 °C. Working solutions with 1PBC were prepared by serial dilution. Unless otherwise stated, experiments were performed at a saturating Ca^2+ concentration as shown in Supplementary Table 1 and the primary data were corrected for current rundown as described previously[21],[25].
Concentration-response relations, obtained from the ratio of the I-V plots before and after the application of the blocker, were fitted to the Hill equation,1 I/Imax=1/1+IC50/[blocker]^h where I/Imax is the normalized current responses, IC50 defines the concentration at which inhibition is at its half-maximum, and h is the Hill coefficient.

N#Cc1c(C(F)(F)F)cc(O)n2c1nc1ccccc12 [1PBC]
IC50 (0 mV, 15 µM Ca2+): 6.23 µM | remaining activity at 1 µM (0 mV): 83.9% | remaining activity at 3 µM (0 mV): 66.6% | remaining activity at 10 µM (0 mV): 39.1% | remaining activity at 30 µM (0 mV): 18.8% | remaining activity at 100 µM (0 mV): 7.07% | I/Imax_+80mV (1 μM 1PBC): 0.7511 | I/Imax_-80mV (1 μM 1PBC, -80 mV): 0.9508 | I/Imax_+80mV (3 μM 1PBC): 0.5097 | I/Imax_-80mV (3 μM 1PBC, -80 mV): 0.8567 | I/Imax_+80mV (10 μM 1PBC): 0.2409 | I/Imax_-80mV (10 μM 1PBC, -80 mV): 0.6177 | Effect of mutation G558P on block by 1PBC (15 µM Ca2+): did not interfere with block | I/Imax_+80mV (30 μM 1PBC): 0.1115 | I/Imax_-80mV (30 μM 1PBC, -80 mV): 0.3696 | I/Imax_+80mV (100 μM 1PBC): 0.03071 | I/Imax_-80mV (100 μM 1PBC, -80 mV): 0.1483 | IC50 (20 mV, 15 µM Ca2+): 4.87 µM | remaining activity at 1 µM (20 mV): 81.1% | remaining activity at 3 µM (20 mV): 60.9% | remaining activity at 10 µM (20 mV): 34% | remaining activity at 30 µM (20 mV): 15.5% | remaining activity at 100 µM (20 mV): 5.33% | IC50 (40 mV, 15 µM Ca2+): 3.94 µM | remaining activity at 1 µM (40 mV): 78.3% | remaining activity at 3 µM (40 mV): 56.7% | remaining activity at 10 µM (40 mV): 28.5% | remaining activity at 30 µM (40 mV): 13.4% | remaining activity at 100 µM (40 mV): 4.84% | IC50 (60 mV, 15 µM Ca2+): 3.4 µM | remaining activity at 1 µM (60 mV): 75.9% | remaining activity at 3 µM (60 mV): 52.9% | remaining activity at 10 µM (60 mV): 26.1% | remaining activity at 30 µM (60 mV): 12% | remaining activity at 100 µM (60 mV): 3.75% | IC50 (80 mV, 15 µM Ca2+): 3.14 µM | remaining activity at 1 µM (80 mV): 75.1% | remaining activity at 3 µM (80 mV): 51% | remaining activity at 10 µM (80 mV): 24.1% | remaining activity at 30 µM (80 mV): 11.2% | remaining activity at 100 µM (80 mV): 3.07% | IC50 (100 mV, 15 µM Ca2+): 3.03 µM | remaining activity at 1 µM (100 mV): 75.6% | remaining activity at 3 µM (100 mV): 50.3% | remaining activity at 10 µM (100 mV): 22.1% | remaining activity at 30 µM (100 mV): 10.7% | remaining activity at 100 µM (100 mV): 2.38% | IC50 (120 mV, 15 µM Ca2+): 3.26 µM | remaining activity at 1 µM (120 mV): 77.2% | remaining activity at 3 µM (120 mV): 52.2% | remaining activity at 10 µM (120 mV): 23.4% | remaining activity at 30 µM (120 mV): 10.7% | remaining activity at 100 µM (120 mV): 2.42% | IC50 (140 mV, 15 µM Ca2+): 3.86 µM | remaining activity at 1 µM (140 mV): 81.4% | remaining activity at 3 µM (140 mV): 57% | remaining activity at 10 µM (140 mV): 25.2% | remaining activity at 30 µM (140 mV): 12% | remaining activity at 100 µM (140 mV): 3.17% | IC50 (-20 mV, 15 µM Ca2+): 7.94 µM | remaining activity at 1 µM (-20 mV): 86.7% | remaining activity at 3 µM (-20 mV): 72.3% | remaining activity at 10 µM (-20 mV): 44.1% | remaining activity at 30 µM (-20 mV): 22.2% | remaining activity at 100 µM (-20 mV): 8.82% | IC50 (-40 mV, 15 µM Ca2+): 10.4 µM | remaining activity at 1 µM (-40 mV): 89.5% | remaining activity at 3 µM (-40 mV): 77.5% | remaining activity at 10 µM (-40 mV): 50.6% | remaining activity at 30 µM (-40 mV): 26.7% | remaining activity at 100 µM (-40 mV): 9.6% | IC50 (-60 mV, 15 µM Ca2+): 13.4 µM | remaining activity at 1 µM (-60 mV): 92.1% | remaining activity at 3 µM (-60 mV): 80.7% | remaining activity at 10 µM (-60 mV): 56.7% | remaining activity at 30 µM (-60 mV): 32.1% | remaining activity at 100 µM (-60 mV): 12.3% | IC50 (-80 mV, 15 µM Ca2+): 17.1 µM | remaining activity at 1 µM (-80 mV): 95.1% | remaining activity at 3 µM (-80 mV): 85.7% | remaining activity at 10 µM (-80 mV): 61.8% | remaining activity at 30 µM (-80 mV): 37% | remaining activity at 100 µM (-80 mV): 14.8% | IC50 (-100 mV, 15 µM Ca2+): 21.1 µM | remaining activity at 1 µM (-100 mV): 96.1% | remaining activity at 3 µM (-100 mV): 88.1% | remaining activity at 10 µM (-100 mV): 66.8% | remaining activity at 30 µM (-100 mV): 41.5% | remaining activity at 100 µM (-100 mV): 17.8% | IC50 (-120 mV, 15 µM Ca2+): 25.4 µM | remaining activity at 1 µM (-120 mV): 98.5% | remaining activity at 3 µM (-120 mV): 90.8% | remaining activity at 10 µM (-120 mV): 71.2% | remaining activity at 30 µM (-120 mV): 45.8% | remaining activity at 100 µM (-120 mV): 19.8% | IC50 (-140 mV, 15 µM Ca2+): 30 µM | remaining activity at 1 µM (-140 mV): 100% | remaining activity at 3 µM (-140 mV): 92.8% | remaining activity at 10 µM (-140 mV): 74.7% | remaining activity at 30 µM (-140 mV): 49.7% | remaining activity at 100 µM (-140 mV): 22.2% | IC50 (G558P, V 0 mV): 6.23 µM | IC50 (G558P, V 20 mV): 4.87 µM | IC50 (G558P, V 40 mV): 3.94 µM | IC50 (G558P, V 60 mV): 3.4 µM | IC50 (G558P, V 80 mV): 3.14 µM | IC50 (G558P, V 100 mV): 3.03 µM | IC50 (G558P, V 120 mV): 3.26 µM | IC50 (G558P, V 140 mV): 3.86 µM | IC50 (G558P, V -20 mV): 7.94 µM | IC50 (G558P, V -40 mV): 10.4 µM | IC50 (G558P, V -60 mV): 13.4 µM | IC50 (G558P, V -80 mV): 17.1 µM | IC50 (G558P, V -100 mV): 21.1 µM | IC50 (G558P, V -120 mV): 25.4 µM | IC50 (G558P, V -140 mV): 30 µM
